Reference: PMC3568987 (ACS medicinal chemistry letters, 2012)

Legend:
human hepatocytes = test: Hepatocyte intrinsic clearance; type: in vitro ADME
rat hepatocytes = test: Hepatocyte intrinsic clearance; type: in vitro ADME

CC#Cc1cncc(-c2cc(Cl)c([C@]3(C)CC(=O)N(C)C(=N)N3)s2)c1 [Compound 16] was tested, and the intrinsic clearance (human hepatocytes) was 2.7 μL.min^−1 ·10^6 cells and the intrinsic clearance (rat hepatocytes) was 4.9 μL.min^−1 ·10^6 cells.
